Data as given in ChEMBL document CHEMBL1134933, “Hydroxamate based inhibitors of adenylyl cyclase. Part 2: the effect of cyclic linkers on P-site binding” (Bioorg Med Chem Lett, 2002).

Each compound was assayed against Adenylate cyclase type 5 (Homo sapiens, UniProt O95622) (assay: Inhibitory concentration against Type V Adenyl Cyclase enzyme).
Chain of Adenylate cyclase type 5 (O95622 whole entry): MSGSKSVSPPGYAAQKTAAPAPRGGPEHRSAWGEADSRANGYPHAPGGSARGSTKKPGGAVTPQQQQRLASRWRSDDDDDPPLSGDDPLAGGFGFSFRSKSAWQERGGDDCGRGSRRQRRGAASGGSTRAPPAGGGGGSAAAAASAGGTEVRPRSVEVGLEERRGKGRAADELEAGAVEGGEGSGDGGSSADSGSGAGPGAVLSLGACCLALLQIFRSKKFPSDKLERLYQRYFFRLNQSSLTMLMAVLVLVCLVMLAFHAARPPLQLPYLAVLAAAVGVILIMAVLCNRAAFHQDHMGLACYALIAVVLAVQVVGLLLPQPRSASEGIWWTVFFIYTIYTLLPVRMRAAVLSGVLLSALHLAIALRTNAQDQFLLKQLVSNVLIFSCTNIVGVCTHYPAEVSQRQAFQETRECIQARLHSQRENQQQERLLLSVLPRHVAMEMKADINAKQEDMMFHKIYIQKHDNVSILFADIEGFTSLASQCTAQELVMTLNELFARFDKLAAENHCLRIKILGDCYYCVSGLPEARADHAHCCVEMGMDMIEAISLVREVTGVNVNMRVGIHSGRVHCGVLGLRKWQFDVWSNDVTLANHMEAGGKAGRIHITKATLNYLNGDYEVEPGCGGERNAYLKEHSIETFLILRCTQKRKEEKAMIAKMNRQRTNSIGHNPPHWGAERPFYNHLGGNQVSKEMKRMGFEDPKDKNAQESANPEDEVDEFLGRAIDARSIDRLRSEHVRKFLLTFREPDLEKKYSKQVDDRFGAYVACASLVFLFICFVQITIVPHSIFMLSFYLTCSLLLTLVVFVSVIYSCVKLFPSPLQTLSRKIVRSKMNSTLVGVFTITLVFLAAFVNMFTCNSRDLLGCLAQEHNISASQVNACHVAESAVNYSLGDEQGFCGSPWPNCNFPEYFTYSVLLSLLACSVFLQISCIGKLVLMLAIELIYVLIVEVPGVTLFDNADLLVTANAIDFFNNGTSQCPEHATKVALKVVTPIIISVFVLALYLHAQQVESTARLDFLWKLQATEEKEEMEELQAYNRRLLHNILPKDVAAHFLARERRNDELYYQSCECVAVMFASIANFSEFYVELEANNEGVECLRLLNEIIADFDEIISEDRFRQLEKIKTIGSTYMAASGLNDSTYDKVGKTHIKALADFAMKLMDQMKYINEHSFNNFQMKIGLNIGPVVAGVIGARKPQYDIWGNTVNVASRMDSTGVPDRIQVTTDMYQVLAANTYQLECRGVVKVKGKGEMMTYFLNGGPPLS

Row | Structure (SMILES) | IC50 [µM]
1 | Nc1ncnc2c1ncn2[C@@H]1CC[C@H](OCC(=O)NO)C1 (stereo in doubt; 8b) | 10.8
2 | Nc1ncnc2c1ncn2[C@H]1CC[C@H](OCC(=O)O)C1 | > 200
3 | Nc1ncnc2c1ncn2[C@@H]1C=C[C@H](OCC(=O)NO)C1 (stereo in doubt; 5d) | 96
4 | Nc1ncnc2c1ncn2[C@@H]1CC[C@H](OCC(=O)O)C1 | 79
5 | Nc1ncnc2c1ncn2[C@H]1CC[C@@H](OCC(=O)O)C1 | > 200
6 | Nc1ncnc2c1ncn2[C@@H]1CC[C@@H](OCC(=O)O)C1 | > 200
7 | Nc1ncnc2c1ncn2[C@@H]1C=C[C@H](OCC(=O)O)C1 | 98
8 | Nc1ncnc2c1ncn2[C@H]1C=C[C@@H](OCC(=O)O)C1 | 78
9 | Nc1ncnc2c1ncn2[C@@H]1C=C[C@@H](OCC(=O)O)C1 | 72
10 | Nc1ncnc2c1ncn2[C@H]1C=C[C@@H](OCC(=O)NO)C1 (stereo in doubt; 5c) | 116
11 | Nc1ncnc2c1ncn2[C@H]1C=C[C@H](OCC(=O)O)C1 | > 200
12 | Nc1ncnc2c1ncn2[C@H]1CC[C@@H](OCC(=O)NO)C1 (stereo in doubt; 8c) | > 200
13 | Nc1ncnc2c1ncn2[C@@H]1C=C[C@H](OCC(=O)NO)C1 (stereo in doubt; 5a) | 102
14 | Nc1ncnc2c1ncn2[C@@H]1CC[C@H](OCC(=O)NO)C1 (stereo in doubt; 8d) | 109
15 | Nc1ncnc2c1ncn2[C@H]1C=C[C@@H](OCC(=O)NO)C1 (stereo in doubt; 5b) | 13.6
16 | Nc1ncnc2c1ncn2[C@H]1CC[C@@H](OCC(=O)NO)C1 (stereo in doubt; 8a) | 110
